In PMC5794978, “Molecular identification, transcript expression, and functional deorphanization of the adipokinetic hormone/corazonin-related peptide receptor in the disease vector, Aedes aegypti” (Scientific Reports, 2018):
Entries after “also recorded” stand apart in the source; their conditions may differ. Non-standard residues stand in square brackets, D forms with d. Residues, ends and D or L forms follow the SMILES beside them. No end group written: not given here. pGlu = O=C1CC[C@@H](C(=O)O)N1

Target: T1, AedaeACPR-I (Aedes aegypti, UniProt A0A2L0VBG2)
T1 construct: only the ACPR-I transcript yields a complete receptor protein which we functionally deorphanized; expressed in transfected cells; host or cells: CHO-K1 cells stably expressing aequorin, transient transfection with pcDNA3.1+
T1 sequence (A0A2L0VBG2 1-577): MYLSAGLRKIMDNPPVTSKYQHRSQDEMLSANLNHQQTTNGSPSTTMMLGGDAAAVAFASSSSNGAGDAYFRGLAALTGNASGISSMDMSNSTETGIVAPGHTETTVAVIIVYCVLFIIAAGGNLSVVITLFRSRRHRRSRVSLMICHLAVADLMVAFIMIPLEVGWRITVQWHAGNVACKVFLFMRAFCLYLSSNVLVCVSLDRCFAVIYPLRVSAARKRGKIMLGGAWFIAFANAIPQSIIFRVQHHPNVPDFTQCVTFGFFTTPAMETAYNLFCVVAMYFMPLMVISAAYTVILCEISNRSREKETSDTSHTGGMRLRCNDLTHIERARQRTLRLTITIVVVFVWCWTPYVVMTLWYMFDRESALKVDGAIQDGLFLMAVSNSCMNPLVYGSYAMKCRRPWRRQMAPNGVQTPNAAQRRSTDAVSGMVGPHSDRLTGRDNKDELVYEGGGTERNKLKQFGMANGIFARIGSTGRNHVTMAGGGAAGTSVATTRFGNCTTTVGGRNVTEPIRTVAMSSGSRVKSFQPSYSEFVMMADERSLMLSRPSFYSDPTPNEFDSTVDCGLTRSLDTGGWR
Test: Heterologous receptor functional assay (aequorin bioluminescence) in CHO-K1 cells transiently expressing AedaeACPR-I
Assay type: cell-based
Conditions: for EC50: CHOK1-aeq cells transiently expressing AedaeACPR-I, peptide doses 10^-12 to 10^-5 M in quadruplicate, luminescence response, average of multiple independent biological replicates (four independent transfections); for Receptor activation (luminescence response): CHO-K1 aequorin cells transiently expressing AedaeACPR-I, doses 10^-12 to 10^-5 M
Method: Functional activation of AedaeACPR-I was assayed using a previously established cell culture system involving a recombinant Chinese hamster ovary (CHO)-K1 cell line stably expressing aequorin[35]. […] At 48 hours post-transfection, cells were detached from the culture flasks using Dulbecco’s phosphate buffered saline (DPBS; Wisent Corporation, St. Bruno, QC) containing 5 mM EDTA and resuspended in BSA medium (DMEM-F12 media containing 0.1% bovine serum albumin, 1X antimycotic-antibiotic) to a concentration of 10^6–10^7 cells/mL. Coelenterazine h (Promega, Madison, WI, USA) was added to the cells to a final concentration of 5 μM, and incubated for 3 hours in the dark at room temperature on a stirrer set at 200 rpm. The cell suspension was then diluted 10-fold and incubated at room temperature for an additional hour. Serial dilutions of peptide ligands (Table 1) were prepared in BSA medium (10^−5 to 10^−12 M), and loaded in quadruplicates into 96-well luminescence plates (Greiner Bio-One, Germany). All peptides were commercially synthesized (Genscript, Piscataway, NJ) at a purity >90% and were prepared in dimethyl sulfoxide at a stock concentration of 1 mM. Cells were loaded into each well with an automatic injector unit and luminescence was measured for 20 seconds using a Synergy 2 Multi-Mode Microplate Reader (BioTek, Winooski, VT, USA). BSA medium alone was utilized as a negative control and 5 × 10^−5 M ATP was used as a positive control, which acts on endogenously expressed purinoceptors[36],[37]. EC50 values were calculated in GraphPad Prism 7.02 (GraphPad Software, San Diego, USA) from dose-dependent curves from four independent transfections.
A heterologous receptor functional assay involving CHO-K1 cells was used to validate the cloned receptor as a bona fide ACP receptor. […] Our findings in this study are consistent with past reports, since similar binding specificity of ACP receptors has been observed previously in T. castaneum, A. gambiae, and R. prolixus with EC50 values reported in the low nanomolar range[17],[25]. Additionally, previous research in the aforementioned insects have also observed that the AKH receptors are not activated by ACP or corazonin peptides, and similarly, the corazonin receptors are not activated by ACP or AKH peptides[17],[25],[43],[44].
Figure 4 Functional heterologous receptor assay of CHO-K1 aequorin cells transiently expressing the AedaeACPR-I. (a) Dose dependent effect on the bioluminescence response (mean 0–15 s) after the addition of between 10^−12–10^−5 M doses of A. aegypti ACP, AKH and CRZ peptides. Luminescence is normalized to the BSA control and plotted relative to the maximal response (10^−5 M). […] (b) Kinetics of the bioluminescence response measured between 0–5 s, 6–10 s, and 11–20 s time intervals, following the addition of 1 × 10^−6 M of the above peptides normalized to vehicle control (BSA media). Luminescence is normalized to the BSA control and plotted relative to the maximal response (10^−5 M). Data represent the mean ± standard error (n = 4).

Compound | EC50 | Receptor activation (luminescence response) | Receptor activation (luminescence response) (listed as AedaePK1) | Receptor activation (luminescence response) (listed as AedaeCAPA-1)
CC(C)[C@H](NC(=O)[C@@H]1CCC(=O)N1)C(=O)N[C@H](C(=O)N[C@@H](Cc1ccccc1)C(=O)N[C@@H](CO)C(=O)N[C@@H](CCCNC(=N)N)C(=O)N[C@@H](CC(=O)O)C(=O)N[C@@H](Cc1c[nH]c2ccccc12)C(=O)N[C@@H](CC(N)=O)C(=O)N[C@@H](C)C(N)=O)[C@@H](C)O [AedaeACP] ([pGlu]VTFSRDWNA-NH2) | 0.0103 µM | – | – | –
CC(C)C[C@H](NC(=O)[C@@H]1CCC(=O)N1)C(=O)N[C@H](C(=O)N[C@@H](Cc1ccccc1)C(=O)N[C@H](C(=O)N1CCC[C@H]1C(=O)N[C@@H](CO)C(=O)N[C@@H](Cc1c[nH]c2ccccc12)C(N)=O)[C@@H](C)O)[C@@H](C)O [AedaeAKH] ([pGlu]LTFTPSW-NH2) | > 10 µM | no detectable luminescence indicative of receptor activation; also recorded: No receptor activation was detected | – | –
C[C@@H](O)[C@H](NC(=O)[C@H](CC(N)=O)NC(=O)[C@H](Cc1c[nH]c2ccccc12)NC(=O)CNC(=O)[C@H](CCCNC(=N)N)NC(=O)[C@H](CO)NC(=O)[C@H](Cc1ccc(O)cc1)NC(=O)[C@H](CCC(N)=O)NC(=O)[C@H](Cc1ccccc1)NC(=O)[C@@H](NC(=O)[C@@H]1CCC(=O)N1)[C@@H](C)O)C(=O)N[C@@H](CC(N)=O)C(N)=O [AedaeCRZ] ([pGlu]TFQYSRGWNTN-NH2) | – | no detectable luminescence indicative of receptor activation; also recorded: No receptor activation was detected | – | –
AGNSGANSGMWFGPRL-NH2 [AedaeCAPA-PK1] | > 10 µM | – | no detectable luminescence indicative of receptor activation; also recorded: No receptor activation was detected | –
GPTVGLFAFPRV-NH2 [AedaeCAPA1] | > 10 µM | No receptor activation was detected | – | no detectable luminescence indicative of receptor activation
